Source: PubChem BioAssay (NCI)
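Cells were grown in 96-well plates and exposed to each compound for 48 hours at five concentrations; endpoints were interpolated linearly between bracketing concentrations, or set to the highest concentration if not reached. Definition used: TGI = concentration required for complete inhibition of growth.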

How the values were obtained:
Experiment in all cases: DTP human tumour cell line panel, 48 h
786-0 renal = system: 786-0 renal
A498 renal = system: A498 renal
A549 NSCLC = system: A549 NSCLC
ACHN renal = system: ACHN renal
BT-549 breast = system: BT-549 breast
CAKI-1 renal = system: CAKI-1 renal
CCRF-CEM leukemia = system: CCRF-CEM leukemia
COLO 205 colon = system: COLO 205 colon
DU-145 prostate = system: DU-145 prostate
EKVX NSCLC = system: EKVX NSCLC
HCC-2998 colon = system: HCC-2998 colon
HCT-116 colon = system: HCT-116 colon
HCT-15 colon = system: HCT-15 colon
HL-60(TB) leukemia = system: HL-60(TB) leukemia
HOP-62 NSCLC = system: HOP-62 NSCLC
HS 578T breast = system: HS 578T breast
HT29 colon = system: HT29 colon
IGROV1 ovarian = system: IGROV1 ovarian
K-562 leukemia = system: K-562 leukemia
KM12 colon = system: KM12 colon
LOX IMVI melanoma = system: LOX IMVI melanoma
M14 melanoma = system: M14 melanoma
MALME-3M melanoma = system: MALME-3M melanoma
MCF7 breast = system: MCF7 breast
MDA-MB-435 = system: MDA-MB-435
MDA-N = system: MDA-N
MOLT-4 leukemia = system: MOLT-4 leukemia
NCI-H23 lung = system: NCI-H23 lung
NCI-H460 lung = system: NCI-H460 lung
NCI-H522 lung = system: NCI-H522 lung
NCI/ADR-RES ovarian = system: NCI/ADR-RES ovarian
OVCAR-3 ovarian = system: OVCAR-3 ovarian
OVCAR-4 ovarian = system: OVCAR-4 ovarian
OVCAR-5 ovarian = system: OVCAR-5 ovarian
OVCAR-8 ovarian = system: OVCAR-8 ovarian
PC-3 prostate = system: PC-3 prostate
RPMI-8226 leukemia = system: RPMI-8226 leukemia
SF-268 CNS = system: SF-268 CNS
SF-295 CNS = system: SF-295 CNS
SF-539 CNS = system: SF-539 CNS
SK-MEL-2 melanoma = system: SK-MEL-2 melanoma
SK-MEL-28 melanoma = system: SK-MEL-28 melanoma
SK-MEL-5 melanoma = system: SK-MEL-5 melanoma
SK-OV-3 ovarian = system: SK-OV-3 ovarian
SNB-19 CNS = system: SNB-19 CNS
SR leukemia = system: SR leukemia
SW-620 colon = system: SW-620 colon
U251 CNS = system: U251 CNS
UACC-257 melanoma = system: UACC-257 melanoma
UACC-62 melanoma = system: UACC-62 melanoma
UO-31 renal = system: UO-31 renal
HOP-92 NSCLC = system: HOP-92 NSCLC
MDA-MB-231 breast = system: MDA-MB-231 breast
NCI-H226 lung = system: NCI-H226 lung
RXF 393 renal = system: RXF 393 renal
SN12C renal = system: SN12C renal
SNB-75 CNS = system: SNB-75 CNS
TK-10 renal = system: TK-10 renal

O=c1cc2oc3ccc4ccccc4c3cc-2c(=O)[nH]1
TGI (786-0 renal): 26.7 µM
TGI (A498 renal): 31.8 µM
TGI (A549 NSCLC): 42.8 µM
TGI (ACHN renal): 32 µM
TGI (BT-549 breast): 11.2 µM
TGI (CAKI-1 renal): 28.8 µM
TGI (CCRF-CEM leukemia): 2.6 µM
TGI (COLO 205 colon): 30 µM
TGI (DU-145 prostate): 27.6 µM
TGI (EKVX NSCLC): 33.8 µM
TGI (HCC-2998 colon): 31.8 µM
TGI (HCT-116 colon): 31.2 µM
TGI (HCT-15 colon): 22.9 µM
TGI (HL-60(TB) leukemia): 4.18 µM
TGI (HOP-62 NSCLC): 25.2 µM
TGI (HS 578T breast): 58.4 µM
TGI (HT29 colon): 32.2 µM
TGI (IGROV1 ovarian): 27.4 µM
TGI (K-562 leukemia): 82.1 µM
TGI (KM12 colon): 42.7 µM
TGI (LOX IMVI melanoma): 21 µM
TGI (M14 melanoma): 32.2 µM
TGI (MALME-3M melanoma): 30.3 µM
TGI (MCF7 breast): 38.5 µM
TGI (MDA-MB-435): 25 µM
TGI (MDA-N): 23.8 µM
TGI (MOLT-4 leukemia): 8.02 µM
TGI (NCI-H23 lung): 4.78 µM
TGI (NCI-H460 lung): 53.1 µM
TGI (NCI-H522 lung): 27.9 µM
TGI (NCI/ADR-RES ovarian): 37.1 µM
TGI (OVCAR-3 ovarian): 24.4 µM
TGI (OVCAR-4 ovarian): 48.5 µM
TGI (OVCAR-5 ovarian): 32.4 µM
TGI (OVCAR-8 ovarian): 4.53 µM
TGI (PC-3 prostate): 22.4 µM
TGI (RPMI-8226 leukemia): > 100 µM
TGI (SF-268 CNS): 28.4 µM
TGI (SF-295 CNS): 37.1 µM
TGI (SF-539 CNS): 25 µM
TGI (SK-MEL-2 melanoma): 31.6 µM
TGI (SK-MEL-28 melanoma): 32.7 µM
TGI (SK-MEL-5 melanoma): 29.3 µM
TGI (SK-OV-3 ovarian): 34.5 µM
TGI (SNB-19 CNS): 27.2 µM
TGI (SR leukemia): 11 µM
TGI (SW-620 colon): 5.3 µM
TGI (U251 CNS): 22 µM
TGI (UACC-257 melanoma): 30.6 µM
TGI (UACC-62 melanoma): 32.5 µM
TGI (UO-31 renal): 23.5 µM

COc1cccc(N2CCc3c(C)c(C#N)c4nc5ccccc5n4c32)c1
TGI (786-0 renal): > 100 µM
TGI (A498 renal): > 100 µM
TGI (A549 NSCLC): > 100 µM
TGI (ACHN renal): > 100 µM
TGI (BT-549 breast): > 100 µM
TGI (CCRF-CEM leukemia): > 100 µM
TGI (COLO 205 colon): > 100 µM
TGI (DU-145 prostate): > 100 µM
TGI (HCC-2998 colon): > 100 µM
TGI (HCT-116 colon): > 100 µM
TGI (HCT-15 colon): > 100 µM
TGI (HL-60(TB) leukemia): > 100 µM
TGI (HOP-62 NSCLC): > 100 µM
TGI (HOP-92 NSCLC): > 100 µM
TGI (HS 578T breast): 60.7 µM
TGI (HT29 colon): > 100 µM
TGI (IGROV1 ovarian): > 100 µM
TGI (K-562 leukemia): > 100 µM
TGI (LOX IMVI melanoma): > 100 µM
TGI (M14 melanoma): > 100 µM
TGI (MALME-3M melanoma): > 100 µM
TGI (MCF7 breast): > 100 µM
TGI (MDA-MB-231 breast): > 100 µM
TGI (MDA-MB-435): > 100 µM
TGI (MDA-N): > 100 µM
TGI (NCI-H226 lung): > 100 µM
TGI (NCI-H23 lung): > 100 µM
TGI (NCI-H460 lung): > 100 µM
TGI (NCI-H522 lung): > 100 µM
TGI (NCI/ADR-RES ovarian): > 100 µM
TGI (OVCAR-3 ovarian): > 100 µM
TGI (OVCAR-4 ovarian): > 100 µM
TGI (OVCAR-5 ovarian): > 100 µM
TGI (OVCAR-8 ovarian): > 100 µM
TGI (PC-3 prostate): > 100 µM
TGI (RXF 393 renal): > 100 µM
TGI (SF-268 CNS): > 100 µM
TGI (SF-295 CNS): > 100 µM
TGI (SF-539 CNS): > 100 µM
TGI (SK-MEL-2 melanoma): > 100 µM
TGI (SK-MEL-28 melanoma): > 100 µM
TGI (SK-MEL-5 melanoma): > 100 µM
TGI (SK-OV-3 ovarian): > 100 µM
TGI (SN12C renal): > 100 µM
TGI (SNB-19 CNS): > 100 µM
TGI (SNB-75 CNS): > 100 µM
TGI (SW-620 colon): > 100 µM
TGI (TK-10 renal): > 100 µM
TGI (U251 CNS): > 100 µM
TGI (UACC-257 melanoma): > 100 µM
TGI (UACC-62 melanoma): > 100 µM
TGI (UO-31 renal): > 100 µM
